Data reported in ChEMBL document CHEMBL4411307, “N,N'-diaryl-bishydrazones in a biphenyl platform: Broad spectrum antifungal agents” (Eur J Med Chem, 2019).
Values after ≈ are worked out from the molar mass of the structure shown. Active and inactive are the calls of the source. The rule behind the calls is not given here.

Experiments:
[1] = Hemolytic activity in mouse RBC at 1.95 ug/ml after 1 hr relative to control; type: ADME, cell-based, Erythrocyte; conditions: red blood cells (erythrocytes), read-out: Activity
[2] = Selectivity index, ratio of CC50 for human A549 cells to MIC for fluconazole/ITC-resistant Candida albicans ATCC 64124; type: toxicity; conditions: read-out: Selectivity Index
Candida albicans [3] = assay: Antifungal activity against fluconazole/ITC-resistant Candida albicans ATCC 10231 measured after 48 hrs by CLSI M27-A3 protocol based method; type: functional; conditions: ATCC 10231, 48 h
[4] = Selectivity index, ratio of CC50 for human A549 cells to MIC for fluconazole/ITC-susceptible Candida albicans ATCC MYA-2310; type: toxicity; conditions: read-out: Selectivity Index
Candida albicans [5] = assay: Selectivity ratio of MIC50 for antibiofilm activity against fluconazole/ITC-resistant Candida albicans ATCC 10231 assessed as reduction in sessile growth to MIC for fluconazole/ITC-resistant Candida albicans ATCC 10231; type: functional
[6] = Selectivity index, ratio of compound concentration showing <20 to <30% hemolysis in mouse RBC to MIC for Aspergillus flavus ATCC MYA-3631; type: toxicity; conditions: mouse red blood cells (RBC), read-out: Selectivity Index
[7] = Selectivity index, ratio of compound concentration showing <20 to <30% hemolysis in mouse RBC to MIC for Candida parapsilosis ATCC 22019; type: toxicity; conditions: mouse red blood cells (RBC), read-out: Selectivity Index
[8] = Selectivity index, ratio of compound concentration showing <20 to <30% hemolysis in mouse RBC to MIC for fluconazole/ITC-resistant Candida albicans ATCC MYA-1237; type: toxicity; conditions: mouse red blood cells (RBC), read-out: Selectivity Index
[9] = Selectivity index, ratio of compound concentration showing <20 to <30% hemolysis in mouse RBC to MIC for fluconazole/ITC-susceptible Candida albicans ATCC MYA-2876; type: toxicity; conditions: red blood cells (erythrocytes), read-out: Selectivity Index
BEAS-2B = assay: Cytotoxicity against human BEAS2B cells after 24 hrs by resazurin based assay; type: cell-based
[10] = Selectivity index, ratio of CC50 for human A549 cells to MIC for Candida krusei ATCC 6258; type: toxicity; conditions: read-out: Selectivity Index
[11] = Hemolytic activity in mouse RBC at 7.8 ug/ml after 1 hr relative to control; type: ADME, cell-based, Erythrocyte; conditions: red blood cells (erythrocytes), read-out: Activity
Candida albicans [12] = assay: Antifungal activity against fluconazole/ITC-susceptible Candida albicans ATCC MYA-2310 measured after 48 hrs by CLSI M27-A3 protocol based method; type: functional; conditions: ATCC MYA-2310, 48 h
Candida albicans [13] = assay: Antifungal activity against fluconazole/ITC-resistant Candida albicans ATCC MYA-1003 measured after 48 hrs by CLSI M27-A3 protocol based method; type: functional; conditions: ATCC MYA-1003, 48 h
[14] = Selectivity index, ratio of compound concentration showing <20 to <30% hemolysis in mouse RBC to MIC for fluconazole/ITC-resistant Candida albicans ATCC 64124; type: toxicity; conditions: red blood cells (erythrocytes), read-out: Selectivity Index
[15] = Selectivity index, ratio of CC50 for human A549 cells to MIC for fluconazole/ITC-resistant Candida albicans ATCC MYA-1237; type: toxicity; conditions: read-out: Selectivity Index
[16] = Selectivity index, ratio of compound concentration showing <20 to <30% hemolysis in mouse RBC to MIC for Candida krusei ATCC 6258; type: toxicity; conditions: mouse red blood cells (RBC), read-out: Selectivity Index
Enterococcus = assay: Antibacterial activity against vancomycin-resistant Enterococcus; type: functional, organism-based
[17] = Selectivity index, ratio of compound concentration showing <20 to <30% hemolysis in mouse RBC to MIC for fluconazole/ITC-susceptible Candida albicans ATCC MYA-2310; type: toxicity; conditions: mouse red blood cells (RBC), read-out: Selectivity Index
[18] = Selectivity index, ratio of CC50 for human A549 cells to MIC for Aspergillus terreus ATCC MYA-3633; type: toxicity; conditions: read-out: Selectivity Index
A549 = assay: Cytotoxicity against human A549 cells after 24 hrs by resazurin based assay; type: cell-based; conditions: a549, 24 h
[19] = Selectivity index, ratio of compound concentration showing <20 to <30% hemolysis in mouse RBC to MIC for Aspergillus terreus ATCC MYA-3633; type: toxicity; conditions: mouse red blood cells (RBC), read-out: Selectivity Index
[20] = Selectivity index, ratio of CC50 for human A549 cells to MIC for Aspergillus nidulans ATCC 38163; type: toxicity; conditions: read-out: Selectivity Index
Candida albicans [21] = assay: Antifungal activity against fluconazole/ITC-resistant Candida albicans ATCC 90819 measured after 48 hrs by CLSI M27-A3 protocol based method; type: functional; conditions: ATCC 90819, 48 h
[22] = Hemolytic activity in mouse RBC at […] after 1 hr relative to control; type: ADME, cell-based, Erythrocyte; conditions: red blood cells (erythrocytes), read-out: Activity; also: tested at 0.48 µg/mL
[23] = Hemolytic activity in mouse RBC at […] ug/ml after 1 hr relative to control; type: ADME, cell-based, Erythrocyte; conditions: red blood cells (erythrocytes), read-out: Activity
Candida albicans [24] = assay: Antifungal activity against fluconazole/ITC-resistant Candida albicans ATCC 64124 measured after 48 hrs by CLSI M27-A3 protocol based method; type: functional; conditions: ATCC 64124, 48 h
Candida albicans [25] = assay: Selectivity ratio of MIC90 for antibiofilm activity against fluconazole/ITC-resistant Candida albicans ATCC 64124 assessed as reduction in sessile growth to MIC for fluconazole/ITC-resistant Candida albicans ATCC 64124; type: functional
Nakaseomyces glabratus = assay: Antifungal activity against Candida glabrata ATCC 2001 measured after 48 hrs by CLSI M27-A3 protocol based method; type: functional; conditions: CBS 138, 48 h
[26] = Selectivity index, ratio of CC50 for human A549 cells to MIC for Candida glabrata ATCC 2001; type: toxicity; conditions: read-out: Selectivity Index
Staphylococcus aureus = assay: Antibacterial activity against methicillin-resistant Staphylococcus aureus; type: functional, organism-based
Candida albicans [27] = assay: Antibiofilm activity against fluconazole/ITC-resistant Candida albicans ATCC 10231 assessed as reduction in sessile growth after 24 hrs by XTT assay; type: functional; conditions: ATCC 10231, 24 h
[28] = Hemolytic activity in mouse RBC at 31.3 ug/ml after 1 hr relative to control; type: ADME, cell-based, Erythrocyte; conditions: red blood cells (erythrocytes), read-out: Activity
Candida albicans [29] = assay: Fungicidal activity against fluconazole/ITC-resistant Candida albicans ATCC 10231 assessed as reduction in fungal growth at 0.5 to 2 times MIC incubated for 24 hrs followed by replating on PDA plates measured after 48 hrs Time-Kill assay; type: functional, organism-based
[30] = Selectivity index, ratio of CC50 for human A549 cells to MIC for Aspergillus flavus ATCC MYA-3631; type: toxicity; conditions: read-out: Selectivity Index
[31] = Selectivity index, ratio of CC50 for human A549 cells to MIC for fluconazole/ITC-resistant Candida albicans ATCC 90819; type: toxicity; conditions: read-out: Selectivity Index
Aspergillus nidulans = assay: Antifungal activity against Aspergillus nidulans ATCC 38163 measured after 48 hrs by CLSI M38-A2 protocol based method; type: functional; conditions: ATCC 38163, 48 h
Candida albicans [32] = assay: Selectivity ratio of MIC50 for antibiofilm activity against fluconazole/ITC-resistant Candida albicans ATCC 64124 assessed as reduction in sessile growth to MIC for fluconazole/ITC-resistant Candida albicans ATCC 64124; type: functional
Pichia kudriavzevii = assay: Antifungal activity against Candida krusei ATCC 6258 measured after 48 hrs by CLSI M27-A3 protocol based method; type: functional; conditions: ATCC 6258, 48 h
Aspergillus terreus = assay: Antifungal activity against Aspergillus terreus ATCC MYA-3633 measured after 48 hrs by CLSI M38-A2 protocol based method; type: functional; conditions: ATCC MYA-3633, 48 h

## C/C(=N\Nc1ccc(F)cc1)c1ccc(-c2ccc(/C(C)=N/Nc3ccc(F)cc3)cc2)cc1
[1]
  hemolysis at 1 h, 1.95 ug/ml: 2.6%
[2]
  selectivity ratio: 4.3
Candida albicans [3]
  MIC: 1.95 µg/mL (≈ 4.29 µM)
[4]
  selectivity ratio: 8.5
Candida albicans [5]
  selectivity ratio: 4
[6]
  selectivity ratio: 1 to 32
[7]
  selectivity ratio: 1 to 32
[8]
  selectivity ratio: 1 to 32
[9]
  selectivity ratio: 1 to 32
BEAS-2B
  CC50: 10.7 µg/mL (≈ 23.5 µM)
[10]
  selectivity ratio: 8.5
[11]
  hemolysis at 1 h, 7.8 ug/ml: 5.9%
Candida albicans [12]
  MIC: 1.95 µg/mL (≈ 4.29 µM)
Candida albicans [13]
  MIC: 7.8 µg/mL (≈ 17.2 µM)
[14]
  selectivity ratio: 1 to 32
[15]
  selectivity ratio: 2.1
[16]
  selectivity ratio: 1 to 32
Enterococcus
  Activity: inactive
[17]
  selectivity ratio: 1 to 32
[18]
  selectivity ratio: 0.5
A549
  CC50: 16.6 µg/mL (≈ 36.5 µM)
[19]
  selectivity ratio: 1 to 32
[20]
  selectivity ratio: 2.1
Candida albicans [21]
  MIC: 7.8 µg/mL (≈ 17.2 µM)
[22]
  hemolysis at 1 h, […]: 0%
[23]; at 15.6 µg/mL
  hemolysis at 1 h, 15.6 ug/ml: 7.4%
[23]
  hemolysis at 1 h, 0.975 ug/ml: 1.4%
Candida albicans [24]
  MIC: 3.9 µg/mL (≈ 8.58 µM)
Candida albicans [25]
  selectivity ratio: 8
Nakaseomyces glabratus
  MIC: 15.6 µg/mL (≈ 34.3 µM)
[26]
  selectivity ratio: 1.1
Staphylococcus aureus
  Activity: inactive
Candida albicans [27]
  MIC50: 8 µg/mL (≈ 17.6 µM)
  MIC90: > 32 µg/mL
[28]
  hemolysis at 1 h, 31.3 ug/ml: 9.5%
Candida albicans [29]
  Activity: Active
[30]
  selectivity ratio: 0.5
[31]
  selectivity ratio: 2.1
Aspergillus nidulans
  MIC: 7.8 µg/mL (≈ 17.2 µM)
Candida albicans [32]
  selectivity ratio: 4
Pichia kudriavzevii
  MIC: 1.95 µg/mL (≈ 4.29 µM)
Aspergillus terreus
  MIC: > 31.3 µg/mL
